# Measured values published in patent publication US20230312528A1, “2-OXO-IMIDAZOLIDINE-4-CARBOXAMIDES AS NAV1.8 INHIBITORS” (Merck Sharp & Dohme LLC, priority 2020, published 2023).
# Target: human NaV1.8 (Homo sapiens (Human), UniProt Q9Y5Y9)
# Test: Nav1.8 Qube automated patch-clamp assay
# Type: cell-based
# Conditions: human NaV1.8 stably expressed in HEK 293 cells; automated 384-well patch-clamp; resting or inactivated state not specified
# Method: Compounds were tested on human NaV1.8 and NaV1.5 channels stably expressed in human embryo kidney (HEK) 293 cells. Sodium current measurements on Qube® were conducted as follows: automated 384-well patch-clamp assays on the Qube® platform (Sophion Biosciences) were used to measure the inhibition of sodium flow through human NaV1.8 and NaV1.5 channels. Whole-cell voltage-clamp recordings were performed in QChips® (Sophion Biosciences) at room temperature. NaV1.8 current measurements on Qube® were obtained as follows: NaV1.8 currents were elicited with a 10 second 1 Hertz (Hz) pulse train from a holding potential of −90 millivolts (mV), delivered to the cells once per minute in the control condition (DMSO only) and after compound addition. The 1 hertz pulse train stimulation consisted of ten test pulses to 10 millivolt (mV) for 20 milliseconds (ms), each of which was followed by a 980 millisecond repolarization to −67 millivolts. At the end of the 10 second pulse train stimulation, a 5 second hyperpolarization step to −100 millivolt (mV) was used to recover NaV1.8 from fast inactivation. The peak currents elicited by the 1st and 10th test pulses were used to determine IC50 values for resting inhibition and inactivated state inhibition. NaV1.5 current measurements on Qube® were obtained as follows: NaV1.5 currents were elicited with a 20 second 3 Hertz pulse train in the control condition (DMSO only) and after compound addition. The pulse train consisted of sixty 20 millisecond test pulses to 0 millivolt from a holding potential of −80 millivolt (mV). The average peak currents elicited by the last 3 test pulses were used to determine IC50 values for NaV1.5 inhibition.
# The following buffers were used for the Qube® recordings: External buffer for NaV1.8 Qube® recording: 150 NaCl, 2 CaCl2, 5 KCl, 1 Mg Cl2, 10 HEPES, 12 Dextrose; External buffer for Qube® NaV1.5 recording: 120 N-Methyl-D-Glucamine, 40 NaCl, 1 KCl, 2.7 CaCl2, 5 HEPES, 0.5 MgCl2; and Internal buffer for Qube® recording: 120 CsF, 30 CsCl, 10 EGTA, 5 HEPES, 5 NaF, 2 MgCl2.
# For all Qube® experiments offline analysis was used to determine percent inhibition as a function of drug concentration. IC50 values were determined by fitting to the Hill equation.
# Sequence of human NaV1.8 (Q9Y5Y9 whole entry): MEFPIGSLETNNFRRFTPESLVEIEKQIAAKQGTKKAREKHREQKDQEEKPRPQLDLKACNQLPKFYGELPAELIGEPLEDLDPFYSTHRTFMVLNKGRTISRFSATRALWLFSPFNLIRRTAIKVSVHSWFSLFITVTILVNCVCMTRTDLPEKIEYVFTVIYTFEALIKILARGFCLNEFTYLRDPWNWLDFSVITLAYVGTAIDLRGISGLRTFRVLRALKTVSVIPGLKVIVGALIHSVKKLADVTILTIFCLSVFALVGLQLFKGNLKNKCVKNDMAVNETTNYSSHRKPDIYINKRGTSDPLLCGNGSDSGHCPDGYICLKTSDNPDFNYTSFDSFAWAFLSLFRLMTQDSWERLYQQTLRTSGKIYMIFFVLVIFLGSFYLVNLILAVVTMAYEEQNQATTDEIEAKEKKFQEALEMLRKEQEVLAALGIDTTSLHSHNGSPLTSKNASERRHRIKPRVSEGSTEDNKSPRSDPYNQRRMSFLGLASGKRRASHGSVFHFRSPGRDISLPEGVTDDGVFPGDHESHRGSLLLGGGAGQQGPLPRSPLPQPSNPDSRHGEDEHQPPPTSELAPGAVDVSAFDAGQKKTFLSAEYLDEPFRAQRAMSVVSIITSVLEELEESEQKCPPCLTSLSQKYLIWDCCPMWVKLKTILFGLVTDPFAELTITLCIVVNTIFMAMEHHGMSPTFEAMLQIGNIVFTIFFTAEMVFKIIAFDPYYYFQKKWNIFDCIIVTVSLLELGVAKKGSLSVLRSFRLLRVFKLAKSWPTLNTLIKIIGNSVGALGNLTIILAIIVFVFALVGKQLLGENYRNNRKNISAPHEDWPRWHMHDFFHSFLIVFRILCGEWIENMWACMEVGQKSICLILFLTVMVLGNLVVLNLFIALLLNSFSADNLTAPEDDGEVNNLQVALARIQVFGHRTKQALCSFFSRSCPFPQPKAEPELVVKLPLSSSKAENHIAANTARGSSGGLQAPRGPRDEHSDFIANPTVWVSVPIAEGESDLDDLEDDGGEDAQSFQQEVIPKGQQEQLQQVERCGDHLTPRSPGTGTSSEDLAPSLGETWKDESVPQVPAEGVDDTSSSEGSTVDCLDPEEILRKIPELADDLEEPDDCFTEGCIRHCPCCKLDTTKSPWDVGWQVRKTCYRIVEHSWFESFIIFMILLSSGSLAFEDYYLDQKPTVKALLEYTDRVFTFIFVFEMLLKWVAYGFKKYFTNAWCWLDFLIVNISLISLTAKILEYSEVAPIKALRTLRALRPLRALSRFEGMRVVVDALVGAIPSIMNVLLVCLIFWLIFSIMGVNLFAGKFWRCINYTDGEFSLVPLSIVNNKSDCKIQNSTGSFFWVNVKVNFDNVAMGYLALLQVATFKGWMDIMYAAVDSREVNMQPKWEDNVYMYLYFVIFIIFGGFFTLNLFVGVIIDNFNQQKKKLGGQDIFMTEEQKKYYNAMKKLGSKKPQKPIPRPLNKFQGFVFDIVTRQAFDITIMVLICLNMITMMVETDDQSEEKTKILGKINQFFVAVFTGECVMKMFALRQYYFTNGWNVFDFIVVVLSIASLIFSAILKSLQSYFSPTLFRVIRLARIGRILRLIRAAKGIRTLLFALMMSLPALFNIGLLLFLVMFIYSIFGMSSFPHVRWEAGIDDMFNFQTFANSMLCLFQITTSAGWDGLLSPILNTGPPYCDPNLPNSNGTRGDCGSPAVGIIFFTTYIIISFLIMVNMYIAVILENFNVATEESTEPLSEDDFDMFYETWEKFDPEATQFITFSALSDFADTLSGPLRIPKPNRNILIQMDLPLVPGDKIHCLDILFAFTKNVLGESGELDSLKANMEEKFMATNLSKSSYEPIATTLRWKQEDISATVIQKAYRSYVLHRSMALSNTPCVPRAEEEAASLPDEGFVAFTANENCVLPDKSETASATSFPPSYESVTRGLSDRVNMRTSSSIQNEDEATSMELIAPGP
row,IC50 [nM],SMILES
1,3.1,"O=C1NC[C@@H](C(=O)NC(c2ccc(OC(F)(F)F)nc2)c2ccc(F)c(Cl)c2F)N1 (single isomer, unassigned) [Example 24A, (4S)-N-{(R or S)-(3-chloro-2,4-difluorophenyl)[6-(trifluoromethoxy)pyridin-3-yl]methyl}-2-oxoimidazolidine-4-carboxamide]"
2,41,"O=C1NC[C@@H](C(=O)NC(c2ccc(OC(F)(F)F)nc2)c2ccc(F)c(Cl)c2F)N1 (single isomer, unassigned) [Example 24B, (4S)-N-{(R or S)-(3-chloro-2,4-difluorophenyl)[6-(trifluoromethoxy)pyridin-3-yl]methyl}-2-oxoimidazolidine-4-carboxamide]"
3,22,"O=C1NC[C@@H](C(=O)NC(CC2CCC(F)(F)CC2)c2ccc(F)c(Cl)c2F)N1 (single isomer, unassigned) [Example 25A, (S)-N-((R or S)-1-(3-chloro-2,4-difluorophenyl)-2-(4,4-difluorocyclohexyl)ethyl)-2-oxoimidazolidine-4-carboxamide]"
4,189,"O=C1NC[C@@H](C(=O)NC(CC2CCC(F)(F)CC2)c2ccc(F)c(Cl)c2F)N1 (single isomer, unassigned) [Example 25B, (S)-N-((R or S)-1-(3-chloro-2,4-difluorophenyl)-2-(4,4-difluorocyclohexyl)ethyl)-2-oxoimidazolidine-4-carboxamide]"
5,413,"O=C1NC[C@@H](C(=O)NC(CC2CCCOC2)c2ccc(F)c(Cl)c2F)N1 (single isomer, unassigned) [Example 26A, (S)-N-((R or S)-1-(3-chloro-2,4-difluorophenyl)-2-((R or S)-tetrahydro-2H-pyran-3-yl)ethyl)-2-oxoimidazolidine-4-carboxamide]"
6,22200,"O=C1NC[C@@H](C(=O)NC(CC2CCCOC2)c2ccc(F)c(Cl)c2F)N1 (single isomer, unassigned) [Example 26B, (S)-N-((R or S)-1-(3-chloro-2,4-difluorophenyl)-2-((R or S)-tetrahydro-2H-pyran-3-yl)ethyl)-2-oxoimidazolidine-4-carboxamide]"
7,386,"O=C1NC[C@@H](C(=O)NC(CC2CCCOC2)c2ccc(F)c(Cl)c2F)N1 (single isomer, unassigned) [Example 26C, (S)-N-((R or S)-1-(3-chloro-2,4-difluorophenyl)-2-((R or S)-tetrahydro-2H-pyran-3-yl)ethyl)-2-oxoimidazolidine-4-carboxamide]"
8,7830,"O=C1NC[C@@H](C(=O)NC(CC2CCCOC2)c2ccc(F)c(Cl)c2F)N1 (single isomer, unassigned) [Example 26D, (S)-N-((R or S)-1-(3-chloro-2,4-difluorophenyl)-2-((R or S)-tetrahydro-2H-pyran-3-yl)ethyl)-2-oxoimidazolidine-4-carboxamide]"
9,5.8,"O=C1NC[C@@H](C(=O)NC(c2ccc(F)c(Cl)c2F)C23CC(C(F)(F)F)(C2)C3)N1 (single isomer, unassigned) [Example 27A, (4S)—N—((R or S)-(3-chloro-2,4-difluorophenyl)(3-(trifluoromethyl)bicyclo[1.1.1]pentan-1-yl)methyl)-2-oxoimidazolidine-4-carboxamide]"
10,244,"O=C1NC[C@@H](C(=O)NC(c2ccc(F)c(Cl)c2F)C23CC(C(F)(F)F)(C2)C3)N1 (single isomer, unassigned) [Example 27B, (4S)—N—((R or S)-(3-chloro-2,4-difluorophenyl)(3-(trifluoromethyl)bicyclo[1.1.1]pentan-1-yl)methyl)-2-oxoimidazolidine-4-carboxamide]"
11,633,"O=C1NC[C@@H](C(=O)NC(c2ccc(F)c(Cl)c2)c2ccn(CC(F)(F)F)n2)N1 (single isomer, unassigned) [Example 28A, (4S)-N-{(R or S)-(3-chloro-4-fluorophenyl)[1-(2,2,2-trifluoroethyl)-1H-pyrazol-3-yl]methyl}-2-oxoimidazolidine-4-carboxamide]"
